Tests used:
[1] = system: ODN1/ODN2 duplex (X = A, Y = T) (DNA, duplex) CTCAGAGTAAGG/CCTTACTCTGAG; experiment: UV melting; settings: Na+ (150 mM NaCl, sodium phosphate); no significant Tm change; duplex 2 μM, CB[7] 4 μM; 10 mM phosphate pH 7.0
[2] = system: ODN1/ODN2 duplex (X = ^Am3dA, Y = T) (DNA, duplex, ^Am3dA (N6-adenosine bearing 1-aminoadamantane via C3 linker) at 6 of strand 1) CTCAGAGTAAGG/CCTTACTCTGAG; experiment: UV melting; settings: Na+ (150 mM NaCl, sodium phosphate); destabilisation (Tm lowered by CB[7]); duplex 2 μM, CB[7] 4 μM; 10 mM phosphate pH 7.0
[3] = system: ODN3/ODN4 duplex (X = ^Am2dA, Y = T), dye-labelled (DNA, duplex, ^Am2dA (N6-adenosine bearing 1-aminoadamantane via C2 linker) at 6 of strand 1) CTCAGAGTAAGG/CCTTACTCTGAG; experiment: FAM/Dabcyl fluorescence time course, kout/kin; settings: Na+ (150 mM NaCl, sodium phosphate), apparent, host binds guest tethered to DNA, duplex dissociates, 10 mM phosphate pH 7.0, 37 °C
[4] = system: ODN1/ODN2 duplex (X = ^Am2dA, Y = T) (DNA, duplex, ^Am2dA (N6-adenosine bearing 1-aminoadamantane via C2 linker) at 6 of strand 1) CTCAGAGTAAGG/CCTTACTCTGAG; experiment: UV melting; settings: Na+ (150 mM NaCl, sodium phosphate); destabilisation (Tm lowered by CB[7]); duplex 2 μM, CB[7] 4 μM; 10 mM phosphate pH 7.0
[5] = system: ODN1/ODN2 duplex (X = ^Am4dA, Y = T) (DNA, duplex, ^Am4dA (N6-adenosine bearing 1-aminoadamantane via C4 linker) at 6 of strand 1) CTCAGAGTAAGG/CCTTACTCTGAG; experiment: UV melting; settings: Na+ (150 mM NaCl, sodium phosphate); destabilisation (Tm lowered by CB[7]); duplex 2 μM, CB[7] 4 μM; 10 mM phosphate pH 7.0

binding [1]: no
ΔTm [2]: 3.6 °C
Kd [3]: 1.0 × 10^–9 M
ΔTm [4]: 20.4 °C
ΔTm [5]: 4.7 °C
SMILES: O=C1N2CN3C(=O)N4CN5C(=O)N6CN7C(=O)N8CN9C(=O)N%10CN%11C(=O)N%12CN%13C(=O)N%14CN1C1C2N2CN%15C(=O)N(CN%16C(=O)N(CN%17C(=O)N(CN%18C(=O)N(CN%19C(=O)N(CN%20C(=O)N(CN1C2=O)C%14C%13%20)C%12C%11%19)C%10C9%18)C8C7%17)C6C5%16)C4C3%15 (centres unmarked)
